The text below walks through data of patent US20220107317A1, “COMPOSITIONS AND METHODS FOR DIAGNOSING AND TREATING CORONAVIRUS DISEASE 2019” (priority 2020, published 2022).

This assay deals with SARS-CoV-2 spike protein RBD (Severe acute respiratory syndrome coronavirus 2, UniProt P0DTC2). The following applies: spike protein RBD and dimer of spike protein RBD, FIG. 4.

For “DLSGFVRPDPVIISSPLSTFFSDAGYKSLLKITMTQSTVPLNLIRVHLMVAVEG HLFQKSFQASPNLAYTFIWDKTDAYGQRVYGLSDAVVSVGFEYETCPSLILW EKRTALLQGFELD [T2 peptide]”, the “binding in Western blot” value is “binding between T2 peptide to both spike protein RBD and the dimer of spike protein RBD”.
